Assay results: patent publication US8524257B2, “Menthol-containing solids composition” (Symrise AG, priority 2005, dated 2013)

Key:
[1] = Dissolving test in ethanol/water, time to complete dissolution; type: physicochemical; conditions: 5 g in 95 g ethanol/water (equal parts by weight), 20° C., stirred, visual determination
Protocol: The different rates of dissolution of a solids composition according to the invention of Example 1a above and of forms of l-menthol that are not in accordance with the invention were compared.
To this end, 5 g of l-menthol or 5 g of the l-menthol-containing solids composition according to the invention of Example 1a were added to 95 g of a mixture, kept at a constant temperature of 20° C., of equal parts by weight of ethanol and water, and the time taken for the menthol or the menthol-containing solids composition to dissolve completely (visual determination) was calculated.
The dissolving test was carried out in a glass beaker having a diameter of 5 cm and a filling height of 7 cm. The contents of the glass beaker were stirred during the dissolving test in each case using a magnetic stirring bead having a length of 4 cm with a magnetic stirrer speed of 4 revolutions per second. The temperature was monitored with a Pt-100 thermometer which was immersed to a depth of 5 cm in the liquid, was located at a distance of 1 cm from the wall of the glass beaker and at the same time served as flow breaker.
The size of the crystals corresponded to the typical (commercial) crystal geometry of natural l-menthol.

[2] = cited from earlier work

Time to complete dissolution [1]	Compound	also measured
170 s	CC(C)[C@@H]1CC[C@@H](C)C[C@H]1O [Menthol crystals from Example 1, l-menthol]	
504 s	CC(C)[C@@H]1CC[C@@H](C)C[C@H]1O [Menthol pellets according to WO 03/101924, Example 1] [l-menthol]	

Continued, compound first:

Compound	Time to complete dissolution [1]	also measured
CC(C)[C@@H]1CC[C@@H](C)C[C@H]1O [Clumped menthol crystals, l-menthol]	280 s	
CC(C)[C@@H]1CC[C@@H](C)C[C@H]1O [Crystals of natural menthol, l-menthol]	255 s	
CC(C)[C@@H]1CC[C@@H](C)C[C@H]1O [flaked l-menthol, l-menthol]		adhesion and clumping ([2]; after 24 hours, as described in U.S. Pat. No. 3,064,311): adhesion and clumping of the flakes
CC1CCC(C(C)C)C(O)C1 (stereo not drawn) [menthol pressed articles, menthol]		clumping and caking ([2]; stored for prolonged periods of over three months): gradually clump and cake together
